Paper PMC8881610 (Nature Communications, 2022)
Where two headings read alike, the source gives them in different places.

Assays:
GLP-1R [1] = molecular target: T1, GLP-1R (Homo sapiens, UniProt P43220); assay: Whole-cell binding assay, competition with 125I-GLP-1(7-36)NH2; design: Flag; expressed in transfected cells; conditions: CHO-K1
Procedure: (§1) Human embryonic kidney 293 cells containing SV40 large T-antigen (HEK293T) were cultured in DMEM (Gibco) supplemented with 10% (v/v) fetal bovine serum (FBS, Gibco), 1 mM sodium pyruvate (Gibco) and 100 units/mL penicillin and 100 μg/mL streptomycin at 37 °C in 5% CO2. Chinese hamster ovary (CHO-K1) cells were cultured in F-12 (Gibco) containing 10% FBS, 100 units/mL penicillin and 100 μg/mL streptomycin at 37 °C in 5% CO2. For cAMP and receptor expression assays, HEK293T cells were seeded into 6-well cell culture plates at a density of 7 × 10^5 cells per well. After overnight incubation, cells were transfected with GIPR, GLP-1R or GCGR construct using Lipofectamine 2000 or Lipofectamine 3000 transfection reagent (Invitrogen). For whole-cell binding assay, CHO-K1 cells were seeded into 96-well fibronectin-treated cell culture plates at a density of 3 × 10^4 cells per well. After overnight incubation, cells were transfected with GIPR, GLP-1R or GCGR construct using Lipofectamine 2000 transfection reagent (Invitrogen). Following 24 h culturing, the transfected cells were ready for use.
For GLP-1R and GCGR, CHO-K1 cells (30,000 cells/well) were seeded into Isoplate-96 plates and incubated for 24 h at 37 °C in 5% CO2. The WT or mutant constructs were transiently transfected using Lipofectamine 2000 transfection reagent as previous described. They were then washed twice using F-12 with 0.1% BSA or 0.1% casein, 33 mM HEPES, and incubated for 2 h at 37 °C. […] Cells were washed three times with ice-cold PBS and lysed in PBS with 1% Triton X-100, 20 mM Tris-HCl. After addition of scintillation cocktail (PerkinElmer), radioactivity (CPM) was counted on a MicroBeta^2 microplate counter (PerkinElmer). Data were normalized to the WT response and analyzed using three-parameter logistic equation.

GLP-1R [2] = molecular target: T1, GLP-1R; assay: β-arrestin 2 recruitment (BRET); assay type: cell-based; design: expressed in transfected cells; host or cells: HEK293T; conditions: GLP-1R WT, HEK293T; for Emax: HEK-293T
Procedure: HEK293T cells (3.2 × 10^6 cells/10 cm plate) were grown for 24 h before transiently transfection with 15 μg plasmid containing GIPR, GLP-1R or GCGR tagged with Rluc8 and β-arrestin 2 with a Venus-tag at the N terminus at a ratio of 1:9 by Lipofectamine 3000 transfection reagent. After cells were grown for 24 h, transiently transfected cells were then seeded onto poly-D-lysine coated 96-well culture plates (50,000 cells/well) in DMEM with 10% FBS. Cells were grown for 20 h before incubation in assay buffer (HBSS supplemented with 10 mM HEPES, 0.1% BSA or 0.1% casein, pH 7.4) for 30 min at 37 °C. Coelentrazine-h (Yeasen Biotech) was added to a final concentration of 5 μM for 5 min before bioluminescence resonance energy transfer (BRET) readings were made using an EnVision plate reader (PerkinElmer). BRET baseline measurements were collected for 15 cycles prior to ligand addition. After which, BRET was measured for 55 cycles.

GIPR = molecular target: T2, GIPR (Homo sapiens, UniProt P48546); assay: cAMP accumulation assay (LANCE Ultra cAMP kit), GIPR WT, mutant or modified constructs; assay type: cell-based; design: acylated tirzepatide to the full-length or modified; Flag; expressed in transfected cells; host or cells: HEK293T; conditions: GIPR WT, 0.1% BSA, HEK293T; read-out: cAMP accumulation pEC50 (converted)
T2 sequence (P48546 22-466): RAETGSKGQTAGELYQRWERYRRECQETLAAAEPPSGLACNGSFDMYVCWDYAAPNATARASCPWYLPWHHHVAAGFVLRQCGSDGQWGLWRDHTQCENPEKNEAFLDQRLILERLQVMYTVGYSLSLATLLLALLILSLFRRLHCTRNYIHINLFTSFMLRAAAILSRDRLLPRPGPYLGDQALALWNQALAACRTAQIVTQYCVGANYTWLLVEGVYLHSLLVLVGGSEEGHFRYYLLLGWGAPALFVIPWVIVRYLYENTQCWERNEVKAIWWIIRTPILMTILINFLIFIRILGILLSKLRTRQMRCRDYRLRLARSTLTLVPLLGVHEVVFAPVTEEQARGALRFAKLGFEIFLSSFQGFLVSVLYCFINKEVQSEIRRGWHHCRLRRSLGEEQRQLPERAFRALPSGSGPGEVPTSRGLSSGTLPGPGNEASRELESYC
Procedure: as §1
A BRIL fusion protein was added at the N-terminal of the ECD with a TEV protease site and 2GSA linker between them. C-terminal 45 amino acids (Q422-C466) of the receptor were truncated. LgBiT was added at the end of helix 8 with a 15-amino acid (15AA) polypeptide linker in between, followed by a TEV protease cleavage site and an OMBP-MBP tag. […] The construct and various mutants of human GIPR were cloned into pcDNA3.1 vector for cAMP accumulation and whole-cell binding assays.
For GIPR, GLP-1R and GCGR, multi-targeting agonist stimulated cAMP accumulation was measured by a LANCE Ultra cAMP kit (PerkinElmer). After 24 h culture, the transfected cells were seeded into 384-well microtiter plates at a density of 3,000 cells per well in HBSS supplemented with 5 mM HEPES, 0.1% (w/v) BSA or 0.1% (w/v) casein and 0.5 mM 3-isobutyl-1-methylxanthine. The cells were stimulated with different concentrations of peptide agonists for 40 min at RT. Eu-cAMP tracer and ULight^TM-anti-cAMP were then diluted by cAMP detection buffer and added to the plates separately to terminate the reaction. Plates were incubated at RT for 1 h and the fluorescence intensity measured at 620 nm and […] by an EnVision multilabel plate reader (PerkinElmer).

T1 sequence (P43220 24-463): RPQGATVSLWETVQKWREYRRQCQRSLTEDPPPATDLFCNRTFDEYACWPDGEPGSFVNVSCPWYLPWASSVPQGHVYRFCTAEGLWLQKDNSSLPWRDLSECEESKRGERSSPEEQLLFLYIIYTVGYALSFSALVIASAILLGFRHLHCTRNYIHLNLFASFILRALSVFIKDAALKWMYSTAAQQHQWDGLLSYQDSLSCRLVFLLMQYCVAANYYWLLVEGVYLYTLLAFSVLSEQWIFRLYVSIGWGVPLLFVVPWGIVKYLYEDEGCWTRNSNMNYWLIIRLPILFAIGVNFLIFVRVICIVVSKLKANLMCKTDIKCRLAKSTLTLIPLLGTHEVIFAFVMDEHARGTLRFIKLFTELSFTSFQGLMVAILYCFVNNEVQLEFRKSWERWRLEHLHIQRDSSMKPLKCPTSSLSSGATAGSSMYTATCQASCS

CC[C@H](C)[C@H](NC(=O)[C@H](CC(C)C)NC(=O)[C@H](Cc1c[nH]c2ccccc12)NC(=O)[C@H](CCC(N)=O)NC(=O)[C@@H](NC(=O)[C@H](Cc1ccccc1)NC(=O)[C@H](C)NC(=O)[C@H](CCCCN)NC(=O)[C@H](CCC(N)=O)NC(=O)[C@H](C)NC(=O)[C@@H](NC(=O)[C@H](CCCCN)NC(=O)[C@H](CC(=O)O)NC(=O)[C@H](CC(C)C)NC(=O)C(C)(C)NC(=O)[C@@H](NC(=O)[C@H](CO)NC(=O)[C@H](Cc1ccc(O)cc1)NC(=O)[C@H](CC(=O)O)NC(=O)[C@H](CO)NC(=O)[C@@H](NC(=O)[C@H](Cc1ccccc1)NC(=O)[C@@H](NC(=O)CNC(=O)[C@H](CCC(=O)O)NC(=O)C(C)(C)NC(=O)[C@@H](N)Cc1ccc(O)cc1)[C@@H](C)O)[C@@H](C)O)[C@@H](C)CC)[C@@H](C)CC)C(C)C)C(=O)N[C@@H](C)C(=O)NCC(=O)NCC(=O)N1CCC[C@H]1C(=O)N[C@@H](CO)C(=O)N[C@@H](CO)C(=O)NCC(=O)N[C@@H](C)C(=O)N1CCC[C@H]1C(=O)N1CCC[C@H]1C(=O)N1CCC[C@H]1C(=O)N[C@@H](CO)C(N)=O [Non-acylated tirzepatide]
binding Span (GLP-1R [1]; GLP-1R WT, 0.1% casein): 80.39 ± 9.18
IC50 (GLP-1R [1]; GLP-1R WT, 0.1% casein, read-out: Binding pIC50 (converted)): 24.5 nM
binding Span (GLP-1R [1]; GLP-1R, effect of tirzepatide acylation): 81.36 ± 4.36 % WT or Tirzepatide
IC50 (GLP-1R [1]; GLP-1R, effect of tirzepatide acylation, read-out: binding pIC50 (converted)): 12.3 nM
EC50 (GLP-1R [2]; 0.1% casein, read-out: β-arrestin 2 recruitment pEC50 (converted)): 27.5 nM
Emax (GLP-1R [2]; 0.1% BSA): 36.6 ± 0.52%
Emax (GLP-1R [2]; 0.1% casein): 40.77 ± 0.37%
EC50 (GIPR): 0.00182 nM
